Experiment [1] has as its target T1, [MCL-1]-[compound of formula (I)]-[CRBN/DDB1] complex (Homo sapiens, UniProt Q07820+Q96SW2). Put plainly: AlphaLISA dose response ternary complex formation assay. Type of experiment: binding. The conditions noted are these: read-out: AlphaLISA dose response Average pEC50 by molecule (converted). Summed up: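 EC50 comes from dose–response of AlphaLISA luminescence (excitation 680, emission 615 nm), normalised between DMSO background and an internal positive control, with concentrations past the hook point dropped. Ternary complex formed by mixing bead-bound biotin-hMCL-1 and His-CRBN/DDB1 (protein solutions 40 and 200 nM) with compound in 2% DMSO, 30 min, 25 °C.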
(Bead proximity is the source of the signal in Alpha formats.)

A further experiment deals with MCL-1 protein (Homo sapiens, UniProt Q07820). Put plainly: OPM-2 cells: MCL-1 protein degradation, Simple Western. Details: endogenous in cells; host or cells: OPM-2. The following applies: OPM-2 cell line, 6 h treatment, 100 nM compound, vs DMSO. It is filed as cell-based. An excerpt: The effect of various compounds of the invention and the reference compounds on MCL-1protein degradation in the OPM-2 cell line was investigated, using the degradation assay protocol below.
Sequence of MCL-1 protein (Q07820 whole entry): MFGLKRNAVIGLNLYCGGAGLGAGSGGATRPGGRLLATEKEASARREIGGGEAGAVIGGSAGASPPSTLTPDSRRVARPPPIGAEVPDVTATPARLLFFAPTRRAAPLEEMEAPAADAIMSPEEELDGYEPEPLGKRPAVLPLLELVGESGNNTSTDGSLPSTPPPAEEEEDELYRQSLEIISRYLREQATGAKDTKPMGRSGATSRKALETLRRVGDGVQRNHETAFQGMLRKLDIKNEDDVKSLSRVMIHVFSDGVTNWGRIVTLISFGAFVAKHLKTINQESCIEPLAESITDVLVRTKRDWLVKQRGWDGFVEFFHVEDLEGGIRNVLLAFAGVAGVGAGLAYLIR
OPM-2 cells were maintained in RPMI-1640 medium, supplemented with penicillin/streptomycin and 10% Fetal Bovine Serum (FBS). During the treatment, FBS concentration was reduced to 1%.
Compound stocks were pre-diluted in DMSO and added directly to the cells growth medium (final DMSO concentration: 0.5%).
OPM-2 cells were collected, centrifuged (250 rcf, 5 min), resuspended in a growth medium containing 1% FBS and counted. The cell suspension was then adjusted to 1×10^6 cell/ml using a growth medium containing 1% FBS. Afterwards, 0.5×10^6 cells were seeded on 24-well plates in 0.5 mL of medium per well. Immediately after seeding cells, compounds in appropriate concentrations were added to the cell culture medium.
Following the treatment with the compounds, cells were collected from the plates and suspended in a lysis buffer (2% SDS, 50 mM Tris, pH 8.0, 100 U/ml Pierce Universal Nuclease for Cell Lysis, cOmplete EDTA-free Protease Inhibitor Cocktail) and incubated on ice for 45 min.
The following steps, including sample loading, protein separation, immunoprobing or labelling, washes and detection analysis was performed using Jess from ProteinSimple, an automatic system for analyzing protein levels in cell lysates (12-230 kDa Jess or Wes separation module 8×25 capillaries, protein normalization assay, no. SM-PN01-1). The Protein of Interest was detected using MCL-1 (D35A5) Rabbit monoclonal antibody (Cell Signaling, #5453, LOT: 4). Antibody was diluted in a ratio of 1:100 in Antibody diluent.
[%] of protein reduction is calculated in comparison to the cells treated with DMSO, which stand for 0%.
The results for the 6 h treatment with 100 nM compounds are shown in Table 9, using the following labels: • <20% for 0-19% of MCL-1 protein reduction, • ≥20% for 20-39% of MCL-1 protein reduction, • ≥40% for 40-100% of MCL-1 protein reduction.

The subject of a further experiment is MV-4-11 cells. Put plainly: Cell viability assay (CellTiter-Glo), MV-4-11. Type of experiment: cell-based. The conditions noted are these: Homo sapiens, MV4-11, 24 hours incubation, 1% FBS, read-out: Average pIC50 by molecule MV-4-11 (converted). Summed up:
(§1)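 Luminescent ATP readout (CellTiter-Glo) at 24 hours measured viability, expressed relative to DMSO-treated wells. Compound was added directly to the medium as a 9–12-point threefold series starting at 30 uM, at 0.5% final DMSO. The medium contained FBS reduced to 1%.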
A general note: Cellular ATP, detected with luciferase, serves as a proxy for viable cell number.

Experiment [2] deals with T1, [MCL-1]-[compound of formula (I)]-[CRBN/DDB1] complex. Put plainly: HTRF ternary complex assay. Type of experiment: binding. The following applies: ternary complex formation; read-out: HTRF ternary complex Average pEC50 by molecule (converted). Summed up: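 hMcl-1 and CRBN (mix at 48 nM and 105.6 nM) with Streptavidin-Eu cryptate and anti-6×His-d2 in PPI Europium buffer with 2 mM DTT; compounds in dose-response, 0.5% DMSO. Incubated 180 min at 25° C, TR-FRET 665/620 read. Bell-shaped curve fitted by Gaussian; EC50 reported.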
On the technique in general: TR-FRET usually uses a lanthanide donor and a delayed reading to cut background.

In the next experiment the test system is ARH-77 cells. The experiment is described as follows: Cell viability assay (CellTiter-Glo), ARH-77. Type of experiment: cell-based. The following applies: Homo sapiens, ARH-77, 24 hours incubation, 1% FBS, read-out: Average pIC50 by molecule ARH-77 (converted). Summed up: as §1

Each structure is given as a SMILES string.

T1 sequence (Q07820 whole entry): as above
T1 sequence (Q96SW2 whole entry): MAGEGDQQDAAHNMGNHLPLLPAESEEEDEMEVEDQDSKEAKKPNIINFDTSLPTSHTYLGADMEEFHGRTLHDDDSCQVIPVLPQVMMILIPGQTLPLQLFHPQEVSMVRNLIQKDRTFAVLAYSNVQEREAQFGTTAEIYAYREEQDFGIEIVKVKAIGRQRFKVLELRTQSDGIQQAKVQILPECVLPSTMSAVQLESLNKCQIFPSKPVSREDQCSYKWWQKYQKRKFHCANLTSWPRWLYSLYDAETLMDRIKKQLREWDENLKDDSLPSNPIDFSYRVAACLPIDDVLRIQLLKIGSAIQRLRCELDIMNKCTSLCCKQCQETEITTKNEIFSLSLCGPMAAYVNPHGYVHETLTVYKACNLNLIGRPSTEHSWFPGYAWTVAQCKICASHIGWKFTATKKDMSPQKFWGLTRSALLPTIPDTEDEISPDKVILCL
T1 sequence (Q16531 whole entry partner): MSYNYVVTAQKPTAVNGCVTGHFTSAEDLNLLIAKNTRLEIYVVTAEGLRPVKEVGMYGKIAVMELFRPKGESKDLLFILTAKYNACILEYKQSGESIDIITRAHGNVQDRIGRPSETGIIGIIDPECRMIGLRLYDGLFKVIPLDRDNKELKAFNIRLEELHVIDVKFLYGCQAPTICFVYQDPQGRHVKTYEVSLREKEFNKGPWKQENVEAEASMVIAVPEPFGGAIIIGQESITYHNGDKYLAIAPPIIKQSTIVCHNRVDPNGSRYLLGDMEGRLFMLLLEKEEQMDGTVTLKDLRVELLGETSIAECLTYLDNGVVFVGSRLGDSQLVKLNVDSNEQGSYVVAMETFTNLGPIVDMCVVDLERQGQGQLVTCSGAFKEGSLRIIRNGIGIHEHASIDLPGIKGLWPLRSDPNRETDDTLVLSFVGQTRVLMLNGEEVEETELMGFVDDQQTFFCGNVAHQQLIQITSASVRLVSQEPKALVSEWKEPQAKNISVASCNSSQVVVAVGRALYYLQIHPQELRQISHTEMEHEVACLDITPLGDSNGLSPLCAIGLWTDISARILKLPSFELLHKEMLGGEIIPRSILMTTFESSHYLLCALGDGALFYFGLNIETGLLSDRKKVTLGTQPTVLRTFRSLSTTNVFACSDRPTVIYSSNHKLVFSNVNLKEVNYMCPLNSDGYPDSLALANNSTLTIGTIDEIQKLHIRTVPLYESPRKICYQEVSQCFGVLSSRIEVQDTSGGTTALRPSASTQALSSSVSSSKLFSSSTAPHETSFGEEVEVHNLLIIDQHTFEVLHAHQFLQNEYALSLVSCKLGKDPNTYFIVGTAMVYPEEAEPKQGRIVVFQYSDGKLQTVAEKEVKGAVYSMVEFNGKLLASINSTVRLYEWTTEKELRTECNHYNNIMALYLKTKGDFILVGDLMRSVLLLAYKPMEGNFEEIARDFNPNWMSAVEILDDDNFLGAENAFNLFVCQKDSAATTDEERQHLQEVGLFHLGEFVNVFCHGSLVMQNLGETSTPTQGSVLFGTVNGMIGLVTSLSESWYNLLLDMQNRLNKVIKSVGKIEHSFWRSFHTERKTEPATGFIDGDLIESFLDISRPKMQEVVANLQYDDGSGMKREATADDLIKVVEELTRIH

Consider `Cc1nn(C)c(COc2ccc(N3CCN(S(=O)(=O)N(C)C)CC3)cc2)c1-c1cccc2c(CCCOc3cccc4ccccc34)c(C(=O)O)n(CCN3CCN(C(=O)CNc4cccc5c4C(=O)N(C4CCC(=O)NC4=O)C5=O)CC3)c12` (stereo not drawn) [Compound 245, 7-(5-((4-(4-(N,N-dimethylsulfamoyl)piperazin-1-yl)phenoxy)methyl)-1,3-dimethyl-1H-pyrazol-4-yl)-1-(2-(4-((2-(2,6-dioxopiperidin-3-yl)-1,3-dioxoisoindolin-4-yl)glycyl)piperazin-1-yl)ethyl)-3-(3-(naphthalen-1-yloxy)propyl)-1H-indole-2-carboxylic acid], for which the EC50 in experiment [1] is below 1000 nM. In addition, the “Simple Western, % of protein reduction” value at MCL-1 protein is on record as at least 20%.

`Cc1nn(C)c(COc2ccc(N3CCN(S(=O)(=O)N(C)C)CC3)cc2)c1-c1cccc2c(CCCOc3cccc4ccccc34)c(C(=O)O)n(CCN3CCN(C(=O)COc4cccc5c4CN(C4CCC(=O)NC4=O)C5=O)CC3)c12` (stereo not drawn) [Compound 249, 7-(5-((4-(4-(N,N-dimethylsulfamoyl)piperazin-1-yl)phenoxy)methyl)-1,3-dimethyl-1H-pyrazol-4-yl)-1-(2-(4-(2-((2-(2,6-dioxopiperidin-3-yl)-1-oxoisoindolin-4-yl)oxy)acetyl)piperazin-1-yl)ethyl)-3-(3-(naphthalen-1-yloxy)propyl)-1H-indole-2-carboxylic acid]: in experiment [1], the EC50 was below 100 nM. Besides, on MCL-1 protein, the “Simple Western, % of protein reduction” value is given as at least 20%. The IC50 in the experiment on MV-4-11 cells is at most 1000 nM.

For the compound `Cc1c(-c2c(-c3ccc(F)o3)sc3ncnc(O[C@H](Cc4ccccc4OCc4ccnn4CC(F)(F)F)C(=O)NS(=O)(=O)CCNC(=O)CCOCCOCCNc4cccc5c4C(=O)N(C4CCC(=O)NC4=O)C5=O)c23)ccc(OCCN2CCN(C)CC2)c1Cl` (stereo partly drawn) [Compound 260, (2R)-2-[(5-{3-chloro-2-methyl-4-[2-(4-methylpiperazin-1-yl)ethoxy]phenyl}-6-(5-fluorofuran-2-yl)thieno[2,3-d]pyrimidin-4-yl)oxy]-N-(2-{3-[2-(2-{[2-(2,6-dioxopiperidin-3-yl)-1,3-dioxo-2,3-dihydro-1H-isoindol-4-yl]amino}ethoxy)ethoxy]propanamido}ethanesulfonyl)-3-(2-{[1-(2,2,2-trifluoroethyl)-1H-pyrazol-5-yl]methoxy}phenyl)propanamide], the “Simple Western, % of protein reduction” value at MCL-1 protein is given as at least 20%.

As to `Cc1nc2c(C(=O)NC3CCC(=O)NC3=O)c(OCC(=O)N3CCN(CCn4c(C(=O)O)c(CCCOc5cccc6ccccc56)c5ccc(Cl)c(-c6c(C)nn(C)c6C)c54)CC3)ccc2[nH]1` (stereo not drawn) [Compound 264, 6-chloro-1-(2-(4-(2-((4-((2,6-dioxopiperidin-3-yl)carbamoyl)-2-methyl-1H-benzo[d]imidazol-5-yl)oxy)acetyl)piperazin-1-yl)ethyl)-3-(3-(naphthalen-1-yloxy)propyl)-7-(1,3,5-trimethyl-1H-pyrazol-4-yl)-1H-indole-2-carboxylic acid], on MCL-1 protein, the “Simple Western, % of protein reduction” value is at least 20%.

On to `Cc1nn(C)c(C)c1-c1c(Cl)ccc2c(CCCOc3cccc4cc(F)ccc34)c(C(=O)O)n(CCCCN(C)C(=O)COc3cccc4c3CN(C3CCC(=O)NC3=O)C4=O)c12` (stereo not drawn) [Compound 326, 6-chloro-1-[4-(2-{[2-(2,6-dioxopiperidin-3-yl)-1-oxo-2,3-dihydro-1H-isoindol-4-yl]oxy}-N-methylacetamido)butyl]-3-{3-[(6-fluoronaphthalen-1-yl)oxy]propyl}-7-(1,3,5-trimethyl-1H-pyrazol-4-yl)-1H-indole-2-carboxylic acid], for which the EC50 in experiment [2] was below 10 nM; in experiment [1] it was below 100 nM. Further, the IC50 in the experiment with MV-4-11 cells was at most 316 nM; in the experiment with ARH-77 cells, above 10000 nM.

As for `Cc1nn(C)c(C)c1-c1c(Cl)ccc2c(CCCOc3cccc4cc(F)ccc34)c(C(=O)O)n(CCN(C)CCN(C)C(=O)COc3cccc4c3CN(C3CCC(=O)NC3=O)C4=O)c12` (stereo not drawn) [Compound 327, 6-Chloro-1-(2-((2-(2-((2-(2,6-dioxopiperidin-3-yl)-1-oxoisoindolin-4-yl)oxy)-N-methylacetamido)ethyl)(methyl)amino)ethyl)-3-(3-((6-fluoronaphthalen-1-yl)oxy)propyl)-7-(1,3,5-trimethyl-1H-pyrazol-4-yl)-1H-indole-2-carboxylic acid], the EC50 in experiment [2] was below 10 nM; in experiment [1], below 100 nM. Also, the IC50 in the experiment with MV-4-11 cells was at most 100 nM; with ARH-77 cells it was above 10000 nM.

Consider `Cc1nn(C)c(C)c1-c1c(F)ccc2c(CCCOc3cccc4ccccc34)c(C(=O)O)n(CCN3CCN(C(=O)COc4cccc5c4C(=O)N(C4CCC(=O)NC4=O)C5=O)CC3)c12` (stereo not drawn) [Compound 213, 1-{2-[4-(2-{[2-(2,6-dioxopiperidin-3-yl)-1,3-dioxo-2,3-dihydro-1H-isoindol-4-yl]oxy}acetyl)piperazin-1-yl]ethyl}-6-fluoro-3-[3-(naphthalen-1-yloxy)propyl]-7-(1,3,5-trimethyl-1H-pyrazol-4-yl)-1H-indole-2-carboxylic acid], for which the EC50 in experiment [1] is below 100 nM. In addition, the “Simple Western, % of protein reduction” value at MCL-1 protein is reported as at least 40%. The figures for the IC50 in the experiment on MV-4-11 cells and with ARH-77 cells were at most 316 nM and above 10000 nM, respectively.

Take `Cc1nn(C)c(C)c1-c1c(Cl)ccc2c(CCCOc3cccc4cc(F)ccc34)c(C(=O)O)n(CCN3CCN(CCOc4cccc5c4C(=O)N(C4CCC(=O)NC4=O)C5=O)CC3)c12` (stereo not drawn) [Compound 321, 6-Chloro-1-(2-(4-(2-((2-(2,6-dioxopiperidin-3-yl)-1,3-dioxoisoindolin-4-yl)oxy)ethyl)piperazin-1-yl)ethyl)-3-(3-((6-fluoronaphthalen-1-yl)oxy)propyl)-7-(1,3,5-trimethyl-1H-pyrazol-4-yl)-1H-indole-2-carboxylic acid]: the EC50 in experiment [2] was below 100 nM; in experiment [1] it was below 10 nM. The IC50 was at most 316 nM in the experiment on MV-4-11 cells and above 10000 nM in the experiment with ARH-77 cells.

Consider `Cc1ccc2c(CCCOc3cccc4ccccc34)c(C(=O)O)n(CCN3CCN(C(=O)COc4cccc5c4C(=O)N(C4CCC(=O)NC4=O)C5=O)CC3)c2c1-c1c(C)nn(C)c1C` (stereo not drawn) [Compound 217, 1-(2-(4-(2-((2-(2,6-dioxopiperidin-3-yl)-1,3-dioxoisoindolin-4-yl)oxy)acetyl)piperazin-1-yl)ethyl)-6-methyl-3-(3-(naphthalen-1-yloxy)propyl)-7-(1,3,5-trimethyl-1H-pyrazol-4-yl)-1H-indole-2-carboxylic acid], for which the EC50 in experiment [1] is below 100 nM. For the same compound, the “Simple Western, % of protein reduction” value at MCL-1 protein is reported as at least 40%. The IC50 in the experiment with MV-4-11 cells was at most 1000 nM.

Take `Cc1nn(C)c(C)c1-c1c(Cl)ccc2c(CCCOc3cccc4cc(F)ccc34)c(C(=O)O)n(CCN3CCC4CN(C(=O)COc5cccc6c5CN(C5CCC(=O)NC5=O)C6=O)CC43)c12` (stereo not drawn) [Compound 301, 6-Chloro-1-{2-[5-(2-{[2-(2,6-dioxopiperidin-3-yl)-1-oxo-2,3-dihydro-1H-isoindol-4-yl]oxy}acetyl)-octahydropyrrolo[2,3-c]pyrrol-1-yl]ethyl}-3-{3-[(6-fluoronaphthalen-1-yl)oxy]propyl}-7-(1,3,5-trimethyl-1H-pyrazol-4-yl)-1H-indole-2-carboxylic acid]: the EC50 in experiment [2] and in experiment [1] was below 10 nM throughout. Moreover, the IC50 with MV-4-11 cells was at most 100 nM; in the experiment on ARH-77 cells, above 10000 nM.

For the origin of these results see US20240294499A1, “TARGETED PROTEIN DEGRADATION USING BIFUNCTIONAL COMPOUNDS THAT BIND UBIQUITIN LIGASE AND TARGET MCL-1 PROTEIN” (Captor Therapeutics S.A., priority 2021, published 2024).
